Four molecules from EP1175402B1, “PIPERIDINE DERIVATIVES USEFUL AS CCR5 ANTAGONISTS” (SCHERING CORPORATION, priority 1999, dated 2000) can be followed below.

The structures appear in SMILES notation.

The target of the assay is T1, human CCR5 chemokine receptor (Homo sapiens, UniProt P51681).
T1 construct: expressed in transfected cells; host or cells: NIH 3T3 cells (murine), membranes
T1 sequence (P51681 whole entry): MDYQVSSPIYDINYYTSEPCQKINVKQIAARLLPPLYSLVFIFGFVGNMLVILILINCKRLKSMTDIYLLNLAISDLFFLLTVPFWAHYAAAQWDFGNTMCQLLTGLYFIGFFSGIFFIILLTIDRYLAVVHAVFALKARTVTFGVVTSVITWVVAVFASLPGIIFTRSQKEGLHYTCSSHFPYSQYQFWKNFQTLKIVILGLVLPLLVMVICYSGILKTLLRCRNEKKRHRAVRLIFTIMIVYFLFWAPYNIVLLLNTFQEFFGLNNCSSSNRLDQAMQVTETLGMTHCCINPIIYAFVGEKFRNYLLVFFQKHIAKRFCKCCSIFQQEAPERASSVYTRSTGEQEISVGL
Briefly: CCR5 membrane binding assay (inhibition of 125I-RANTES binding). The settings on record: membranes from NIH 3T3 cells expressing the human CCR5 chemokine receptor, one hour incubation. As to the method:
CCR5 Membrane Binding Assay:
A high throughput screen utilizing a CCR5 membrane binding assay identifies inhibitors of RANTES binding. This assay utilizes membranes prepared from NIH 3T3 cells expressing the human CCR5 chemokine receptor which have the ability to bind to RANTES, a natural ligand for the receptor. Using a 96-well plate format, membrane preparations are incubated with ^125I-RANTES in the presence or absence of compound for one hour. Compounds are serially diluted over a wide range of 0.001 ug/ml to 1 ug/ml and tested in triplicates. Reaction cocktails are harvested through glass fiber filters, and washed thoroughly. Total counts for replicates are averaged and data reported as the concentration required to inhibit 50 percent of total ^125I-RANTES binding.
Consider `CO/N=C(/c1ccc(OC(F)(F)F)cc1)C1CCN(C2(C)CCN(C(=O)c3c(C)cccc3C)CC2)CC1` [Example 7U], for which the Ki is 62.5 nM.

`Cc1ncnc(C)c1C(=O)N1CCC(C)(N2CCC(C(Oc3ccccn3)c3ccc(Br)cc3)CC2)CC1` (single isomer, unassigned) [Example 4C] gave a Ki of 0.5 nM. Take `Cc1ccnc(C)c1C(=O)N1CCC(C)(N2CCC(C(Oc3ccccn3)c3ccc(S(C)(=O)=O)cc3)CC2)CC1` (stereo not shown) [Example 2]: the Ki was 9.6 nM. For the molecule `CCC(=O)OC(c1ccc(Br)cc1)C1CCN(C2(C)CCN(C(=O)c3c(C)cccc3C)CC2)CC1` (stereo not shown) [Example 1B], the Ki was 14 nM.
